Active and inactive are the calls of the source. How the calls were made is not given here.

This experiment deals with Chaperone protein DnaK (Escherichia coli (strain K12)) (UniProt P0A6Y8). The experiment in a line: E. coli DnaK SBD ligand binding – biophysical, NMR, chaperone (AID 1033). The following applies: Purified DnaK SBD.
Chaperone protein DnaK (Escherichia coli (strain K12)), sequence (P0A6Y8 whole entry, looked up): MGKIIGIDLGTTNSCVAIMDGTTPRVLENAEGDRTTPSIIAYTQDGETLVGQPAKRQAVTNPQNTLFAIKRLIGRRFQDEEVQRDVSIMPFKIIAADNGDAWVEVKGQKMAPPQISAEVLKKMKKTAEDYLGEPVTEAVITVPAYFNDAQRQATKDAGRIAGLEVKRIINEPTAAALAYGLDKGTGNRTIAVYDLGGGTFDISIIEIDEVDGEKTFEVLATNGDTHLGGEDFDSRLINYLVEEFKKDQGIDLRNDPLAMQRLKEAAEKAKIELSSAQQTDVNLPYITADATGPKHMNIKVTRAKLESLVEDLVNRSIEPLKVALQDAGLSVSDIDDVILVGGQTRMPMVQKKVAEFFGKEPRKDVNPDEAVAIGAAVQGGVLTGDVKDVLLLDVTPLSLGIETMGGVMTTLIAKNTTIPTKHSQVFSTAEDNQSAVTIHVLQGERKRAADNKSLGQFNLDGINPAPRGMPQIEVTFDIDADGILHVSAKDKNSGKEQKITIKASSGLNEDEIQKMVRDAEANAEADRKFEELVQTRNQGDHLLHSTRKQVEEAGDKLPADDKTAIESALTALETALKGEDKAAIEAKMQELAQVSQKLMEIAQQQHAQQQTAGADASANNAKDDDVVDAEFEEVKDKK
Regarding `CC1=C(CCC(=O)O)c2cc3nc(cc4[nH]c(cc5[nH]c(cc1n2)c(C)c5C(C)O)c(C)c4C(C)O)C(C)=C3CCC(=O)O` (stereo not given), the Kd is > 4 mM (inactive).

Regarding `C=CC1=C(C)/C(=C/c2[nH]c(Cc3[nH]c(/C=C4\NC(=O)C(C)=C4C=C)c(C)c3CCC(=O)O)c(CCC(=O)O)c2C)NC1=O`, the Kd was > 4 mM (inactive).

On to `CN1CCN(c2ccc(CN)cc2)CC1`, for which the Kd is > 4 mM (inactive).

Consider `CS(C)=C1C(=O)NC(=O)N(Cc2ccc(F)cc2)C1=O`, for which the Kd was > 4 mM (inactive).

In the case of `CC1(C)C2CC[C@]3(C)C(C(=O)C=C4[C@H]5C[C@@](C)(C(=O)O)CC[C@]5(C)CC[C@]43C)[C@@]2(C)CC[C@@H]1O` (stereo not given in full), the Kd is > 4 mM (inactive).

On to `CCc1nnsc1C(=O)Nc1nccs1`, for which the Kd was > 4 mM (inactive).

Turning to `CN1CCC(N2CCN(C)CC2)CC1`, the Kd was > 4 mM (inactive).

As to `COc1ccccc1NC(=O)c1snnc1C`, the Kd was > 4 mM (inactive).

For the compound `C[C@@H]1C(=O)OC2[C@H](O)C34[C@@H]5OC(=O)[C@@]3(O[C@@H]3OC(=O)[C@H](O)[C@@]34[C@H](C(C)(C)C)[C@H]5O)[C@]21O` (stereo not given in full), the Kd was > 4 mM (inactive).

Regarding `Cn1ccc(NC(=S)NC2CCCC2)n1`, the Kd was > 4 mM (inactive).

For the compound `C/C=C/c1ccc2c(c1)OCO2`, the Kd is > 4 mM (inactive).

For the compound `COc1ccc2c3c([nH]c2c1)C(C)=NCC3`, the Kd was > 4 mM (inactive).

`c1ccc2c(c1)ncn2CCn1cnc2ccccc21`: the Kd is > 4 mM (inactive).

On to `Cc1ccc2c(C)c(C(=O)Nc3nnc(C)s3)oc2c1`, for which the Kd was > 4 mM (inactive).

Consider `Nc1ncnc(NC2CCS(=O)(=O)C2)c1[N+](=O)[O-]` (stereo not given), for which the Kd is > 4 mM (inactive).

As for `O=c1[nH]cc(N=Cc2ccc(F)cc2)c(=O)[nH]1`, the Kd was > 4 mM (inactive).

`NCCc1c[nH]c2ccccc12`: the Kd is > 4 mM (inactive).

With `CC(=O)c1cnc(Nc2nc(C)c3ccccc3n2)nc1C`, the Kd was > 4 mM (inactive).

Regarding `CS(=O)(=O)NN=C1CCCCC1`, the Kd is > 4 mM (inactive).

On to `Cc1nn2c(nc1=O)SCC(c1ccccc1)=N2`, for which the Kd was > 4 mM (inactive).

Consider `Cn1nnc2cc(CO)ccc21`, for which the Kd is > 4 mM (inactive).

Take `Nc1cc(N)nc(SCc2cccnc2)n1`: the Kd is > 4 mM (inactive).

As for `O=C(O)c1cc(=O)[nH]c2ccccc12`, the Kd is > 4 mM (inactive).

As for `NC(=O)C1CCN(C2CC(=O)NC2=O)CC1` (stereo not given), the Kd was > 4 mM (inactive).

Turning to `O=C1c2cccnc2C(=O)N1Cc1ccco1`, the Kd is > 4 mM (inactive).

With `CSc1nn(-c2ccccc2)c(N)c1C#N`, the Kd is > 4 mM (inactive).

Turning to `Cc1nc2c(n1O)CCc1c-2no[n+]1[O-]`, the Kd was > 4 mM (inactive).

`CSCCNC(C)=O`: the Kd is > 4 mM (inactive).

In the case of `OC12C=CC(CC1)CC2`, the Kd is > 4 mM (inactive).

Take `Cc1cc(C(=O)Nc2ccon2)cs1`: the Kd is > 4 mM (inactive).

`Nc1ccccc1-c1nc2ccccc2[nH]1`: the Kd is > 4 mM (inactive).

As to `COc1ccccc1NC(=O)c1cc[n+]([O-])cc1`, the Kd is > 4 mM (inactive).

On to `O=C(NCC1CCCCC1)c1ccco1`, for which the Kd was > 4 mM (inactive).

For `COc1ccc(NC(=O)N2CCCCC2)cc1`, the Kd was > 4 mM (inactive).

For `c1ccc(-c2csc(Nc3cccnc3)n2)nc1`, the Kd was > 4 mM (inactive).

As to `O=C(c1ccncc1)N1CCN(C(=O)c2ccncc2)CC1`, the Kd is > 4 mM (inactive).

As for `CC(C)c1c(O)c(-c2cc3c(c(C(C)C)c2O)CCC2C(C)(C)CCC[C@]32C)cc2c1CCC1C(C)(C)CCC[C@]21C` (stereo not given in full), the Kd was > 4 mM (inactive).

On to `Cc1cc(OC(=O)c2c(C)cc(O)cc2O)cc(O)c1C(=O)O`, for which the Kd is > 4 mM (inactive).

Regarding `CC(=O)c1ccc(N2C(=O)C(C(C)C)NC2=S)cc1` (stereo not given), the Kd is > 4 mM (inactive).

Regarding `O=C(NCCCO)c1ccncc1`, the Kd is > 4 mM (inactive).

On to `Cc1cc(C)nc(/N=C(/N)Nc2cccc(F)c2)n1`, for which the Kd is > 4 mM (inactive).

Consider `c1ccc2[nH]c(SCc3cscn3)nc2c1`, for which the Kd was > 4 mM (inactive).

In the case of `C/C1=C/CC(C)(C)/C=C/C/C(C)=C/CC1`, the Kd is > 4 mM (inactive).

For `O=C(O)C1CCCCN1Cc1ccccc1` (stereo not given), the Kd was > 4 mM (inactive).

As to `COc1ccc(Cl)cc1NC(=O)C(N)=O`, the Kd is > 4 mM (inactive).

As for `O=C(O)c1ccc2sccc2c1`, the Kd was > 4 mM (inactive).

As to `CCCS(=O)(=O)N1CCN(c2ccccc2F)CC1`, the Kd is > 4 mM (inactive).

`NCc1ccc(-n2cccc2)cc1`: the Kd was > 4 mM (inactive).

With `CNC(=S)Nc1ccc2c(c1)OCO2`, the Kd is > 4 mM (inactive).

Take `CC(=O)C1CCC2C3CCC4C[C@H](O)CCC4(C)C3C[C@H](O)C12C` (stereo not given in full): the Kd was > 4 mM (inactive).

Regarding `C=C1CCC2[C@](C)(CO)[C@H](O)CC[C@@]2(C)[C@@H]1C/C=C1/C(=O)OC[C@H]1O` (stereo not given in full), the Kd was > 4 mM (inactive).

In the case of `Cc1[nH]c2ccccc2c1C=Nn1cncn1`, the Kd is > 4 mM (inactive).

Consider `OCc1cccc2nonc12`, for which the Kd was > 4 mM (inactive).

With `N#CC(O[C@@H]1O[C@H](CO[C@@H]2O[C@H](CO)[C@@H](O)[C@H](O)[C@H]2O)[C@@H](O)[C@H](O)[C@H]1O)c1ccccc1` (stereo not given in full), the Kd was > 4 mM (inactive).

Take `Nc1ccc(-c2cnco2)cc1`: the Kd was > 4 mM (inactive).

For `CNc1ccccc1C(=O)O`, the Kd is > 4 mM (inactive).

Turning to `CN1CCN(C(=O)c2cc(-c3ccccc3)on2)CC1`, the Kd is > 4 mM (inactive).

Consider `CCOC(=O)c1csc(N)n1`, for which the Kd is > 4 mM (inactive).

As to `Cc1ccc(NC(=O)C(=O)Nc2ccccn2)cc1`, the Kd was > 4 mM (inactive).

As to `COc1ccc(-c2oc3cc(O[C@H]4O[C@H](CO)[C@@H](O)[C@H](O)[C@H]4O)c(OC)c(O)c3c(=O)c2OC)cc1O`, the Kd is > 4 mM (inactive).

Turning to `CN1C(=O)/C(=C\c2ccc[nH]2)SC1=S`, the Kd is > 4 mM (inactive).

For `COc1ccccc1NC(N)=S`, the Kd was > 4 mM (inactive).

Take `O=S1(=O)C=C(Nc2ccccc2)CC1`: the Kd was > 4 mM (inactive).

On to `O=C(Nc1ccccc1)NC1CCS(=O)(=O)C1` (stereo not given), for which the Kd is > 4 mM (inactive).

Take `OC1CCN(C(=S)NC2CC2)CC1`: the Kd was > 4 mM (inactive).

`c1ccn(Cc2ccncc2)c1`: the Kd was > 4 mM (inactive).

Turning to `CN(c1ccccc1C(=O)N1CCCC1)S(C)(=O)=O`, the Kd was > 4 mM (inactive).

For the compound `CCCCn1c(S(=O)(=O)O)nc2ccccc21`, the Kd is > 4 mM (inactive).

With `CCc1ccc2oc(-c3cc(N)cc(C)c3O)nc2c1`, the Kd was > 4 mM (inactive).

Regarding `Cc1nnc(Nc2cccnc2)[nH]c1=O`, the Kd was > 4 mM (inactive).

Regarding `Cc1ccc2c(c1)CCCN2C(=O)c1c(C)noc1C`, the Kd was > 4 mM (inactive).

As for `CCCc1cc(=O)[nH]c2nnc(SCC(C)=O)n12`, the Kd was > 4 mM (inactive).

With `CC(=O)Oc1ccc(-c2cc(=O)c3c(OC(C)=O)cc(OC(C)=O)cc3o2)cc1`, the Kd was > 4 mM (inactive).

Regarding `O=c1cc(-c2ccc(O)cc2)oc2cc(O)cc(O)c12`, the Kd was > 4 mM (inactive).

Regarding `Cn1c(SCC(N)=O)nnc1-c1cccnc1`, the Kd is > 4 mM (inactive).

For the compound `COc1ccc2nc(N)sc2c1`, the Kd was > 4 mM (inactive).

For the compound `O=C(O)c1cncc(-c2ccccc2)c1`, the Kd was > 4 mM (inactive).

For `O=C1CCC(=O)N1CN1CCOCC1`, the Kd is > 4 mM (inactive).

With `COC(=O)CCC(C)C1CCC2C3CCC4C[C@H](O)CC[C@]4(C)C3C[C@H](O)[C@]12C` (stereo not given in full), the Kd was > 4 mM (inactive).

`CC(=O)Nc1cccc(NC(=O)c2cccnc2)c1`: the Kd was > 4 mM (inactive).

For the compound `Nc1cc(C(=O)O)ccc1N1CCCCCC1`, the Kd was > 4 mM (inactive).

Consider `CC1(C)CC2C1CCC1(C)OC2(C)CCC1O` (stereo not given), for which the Kd was > 4 mM (inactive).

As for `CC1(C)CC23C(=O)CCC(O)C2(C)CCC13` (stereo not given), the Kd was > 4 mM (inactive).

For `C(=N\c1ncn[nH]1)/c1cccs1`, the Kd is > 4 mM (inactive).

As to `NCc1cccc2c1OCCO2`, the Kd was > 4 mM (inactive).

Consider `OC1CCN(c2nccc(C(F)(F)F)n2)CC1`, for which the Kd is > 4 mM (inactive).

Regarding `O=C1CN(c2ccccc2)CC(=O)N1`, the Kd was > 4 mM (inactive).

As for `O=C1C(=O)N(CNc2ncccn2)c2ccccc21`, the Kd is > 4 mM (inactive).

In the case of `COc1c(C)c2c(c(O)c1C/C=C(\C)CCC(=O)O)C(=O)OC2`, the Kd was > 4 mM (inactive).

Take `COc1ccc2c3c1O[C@H]1C[C@@H](O)C=C[C@@]31CCN(C)C2`: the Kd was > 4 mM (inactive).

Consider `O=C(O)C1CCCN1Cc1c[nH]c2ccccc12` (stereo not given), for which the Kd is > 4 mM (inactive).

Regarding `Cc1ccc(-c2nn(C)c(=O)c3ccccc23)cc1CO`, the Kd was > 4 mM (inactive).

Turning to `Cc1cccc(OCc2nnc(N)s2)c1`, the Kd is > 4 mM (inactive).

Turning to `Nn1cnn2c(SCc3ccccc3)nnc12`, the Kd is > 4 mM (inactive).

For the compound `Cc1[nH]c2ccccc2c1CN(C)C`, the Kd is > 4 mM (inactive).

With `Cc1cc(N)ccc1NC(=O)c1ccco1`, the Kd was > 4 mM (inactive).

In the case of `Oc1ccc(-c2n[nH]c(=S)n2Cc2ccco2)cc1`, the Kd was > 4 mM (inactive).

Take `CC(=O)c1c(O)n(C)c(=S)n(C)c1=O`: the Kd is > 4 mM (inactive).

Take `COc1ccc2c(c1O)-c1c(OC)c(OC)cc3c1[C@H](C2)N(C)CC3`: the Kd is > 4 mM (inactive).

Turning to `S=c1nc2c(n[nH]1)[nH]c1ccccc12`, the Kd was > 4 mM (inactive).

What is called Kd is the free concentration of one partner at which half of the binding sites on the other are occupied at equilibrium, for simple one-to-one binding.

(Values after PubChem BioAssay AID1033 (Sanford-Burnham Center for Chemical Genomics, 2008).)
